The values that follow come from PMC5603908 (Biochemistry, 2017).

No end group written: not given here. Where only a bound is given, the exact number is not on record here.

For one series, the system named is E. coli ATCC 25922. Particulars: minimal inhibitory concentration, microdilution method. A general note: Broth dilution looks for growth in wells or tubes with falling amounts of substance.
The test system of series [1] is methicillin-resistant S. aureus (MRSA) USA300. Particulars: minimal inhibitory concentration, microdilution method.
A further series relates to human HaCaT cells. Particulars: cited from earlier work.
Another series deals with human HEK293 cells. Particulars: cited from earlier work.
A further series has as its system S. aureus USA300. Particulars: after peptide treatment; cited from earlier work.

As to WWWRRRIW-NH2 [L4R], in the series on E. coli ATCC 25922, the “E. coli (MIC)” value turned out to be 25 µM. In the series with human red blood cells, the HL50 is over 200 µM.

With RWWLRRIW-NH2 [W1R], the “E. coli (MIC)” value with E. coli ATCC 25922 came to 25 µM. Further, in the series with human red blood cells, the HL50 is over 200 µM.

Regarding WWRLRRIW-NH2 [W3R], the “E. coli (MIC)” value in the series with E. coli ATCC 25922 was 25 µM. In the series on human red blood cells, this substance came in with an HL50 of over 200 µM.

For WWWLRRIR-NH2 [W8R], the “E. coli (MIC)” value in the series with E. coli ATCC 25922 stood at 25 µM. The substance further yielded an HL50 with human red blood cells of over 200 µM.

As for WWWLRRIW-NH2 [WT], the “S. aureus (MIC)” value in series [1] was 3.1 µM. The “cytotoxicity” value with human HaCaT cells and with human HEK293 cells was “less cytotoxic” each time. Besides, the “E. coli (MIC)” value in the series on E. coli ATCC 25922 was found to be 6.2 µM. This substance also gave an HL50 in the series on human red blood cells of 35 µM.

Consider WWWLRRRW-NH2 [I7R], for which, in series [1], the “S. aureus (MIC)” value was determined as 3.1 µM. The “E. coli (MIC)” value in the series with E. coli ATCC 25922 came to 6.2 µM. This substance came in with an HL50 in the series on human red blood cells of 150 µM.

WRWLRRIW-NH2 [W2R]: the “S. aureus (MIC)” value in series [1] came out at 6.2 µM. The “E. coli (MIC)” value in the series with E. coli ATCC 25922 was 25 µM. In the series on human red blood cells, this substance had an HL50 of 100 µM.

As for WWWLRKIW-NH2 [TetraF2W-RK], in the series on S. aureus USA300, the “time to entry of non-permeable dye FITC into S. aureus” value was 30 s.
